Consider 1 substance from patent US4550186A, “Binuclear copper (II) carboxylates formed from amine-carboxyboranes” (Duke University, priority 1983, dated 1985).

The target in the experiment is T1, transfer ribonucleic acid polymerase (Mus musculus, UniProt B2RXC6+P59470).
T1 sequence (B2RXC6 1-1390): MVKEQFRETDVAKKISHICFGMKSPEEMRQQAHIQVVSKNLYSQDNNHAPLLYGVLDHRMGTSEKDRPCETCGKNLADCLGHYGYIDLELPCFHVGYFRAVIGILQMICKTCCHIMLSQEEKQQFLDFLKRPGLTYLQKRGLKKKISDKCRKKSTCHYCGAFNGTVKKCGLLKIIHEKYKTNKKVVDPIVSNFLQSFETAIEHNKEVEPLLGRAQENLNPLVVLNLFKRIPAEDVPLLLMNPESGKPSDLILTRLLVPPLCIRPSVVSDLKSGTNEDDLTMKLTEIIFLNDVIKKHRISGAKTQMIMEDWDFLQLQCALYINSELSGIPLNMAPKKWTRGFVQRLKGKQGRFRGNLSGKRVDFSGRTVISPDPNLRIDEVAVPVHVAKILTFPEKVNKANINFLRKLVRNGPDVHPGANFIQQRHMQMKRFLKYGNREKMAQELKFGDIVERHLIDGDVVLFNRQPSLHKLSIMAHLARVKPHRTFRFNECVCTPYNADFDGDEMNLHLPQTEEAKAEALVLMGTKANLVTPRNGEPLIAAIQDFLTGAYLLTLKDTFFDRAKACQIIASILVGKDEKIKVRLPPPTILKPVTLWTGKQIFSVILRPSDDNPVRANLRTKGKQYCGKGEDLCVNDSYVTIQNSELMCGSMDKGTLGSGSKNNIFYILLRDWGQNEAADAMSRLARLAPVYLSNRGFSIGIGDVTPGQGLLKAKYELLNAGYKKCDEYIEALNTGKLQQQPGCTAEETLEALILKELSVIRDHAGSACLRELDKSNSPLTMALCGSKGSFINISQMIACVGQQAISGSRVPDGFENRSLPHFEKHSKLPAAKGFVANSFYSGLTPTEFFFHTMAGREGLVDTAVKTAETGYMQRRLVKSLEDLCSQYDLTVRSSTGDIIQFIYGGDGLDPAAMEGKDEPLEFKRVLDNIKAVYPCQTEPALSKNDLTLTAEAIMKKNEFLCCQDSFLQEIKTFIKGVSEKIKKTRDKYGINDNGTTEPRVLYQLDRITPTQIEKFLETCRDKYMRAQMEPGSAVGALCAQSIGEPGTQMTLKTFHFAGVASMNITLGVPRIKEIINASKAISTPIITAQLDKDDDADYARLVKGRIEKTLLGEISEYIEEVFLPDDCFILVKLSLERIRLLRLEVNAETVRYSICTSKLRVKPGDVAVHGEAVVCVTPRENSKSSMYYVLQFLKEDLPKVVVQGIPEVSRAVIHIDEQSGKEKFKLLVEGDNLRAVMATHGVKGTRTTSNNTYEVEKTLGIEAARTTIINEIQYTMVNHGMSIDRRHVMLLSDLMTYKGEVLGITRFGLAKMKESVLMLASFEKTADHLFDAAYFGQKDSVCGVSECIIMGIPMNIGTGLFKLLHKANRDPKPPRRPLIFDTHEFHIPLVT
T1 sequence (P59470 1-1133): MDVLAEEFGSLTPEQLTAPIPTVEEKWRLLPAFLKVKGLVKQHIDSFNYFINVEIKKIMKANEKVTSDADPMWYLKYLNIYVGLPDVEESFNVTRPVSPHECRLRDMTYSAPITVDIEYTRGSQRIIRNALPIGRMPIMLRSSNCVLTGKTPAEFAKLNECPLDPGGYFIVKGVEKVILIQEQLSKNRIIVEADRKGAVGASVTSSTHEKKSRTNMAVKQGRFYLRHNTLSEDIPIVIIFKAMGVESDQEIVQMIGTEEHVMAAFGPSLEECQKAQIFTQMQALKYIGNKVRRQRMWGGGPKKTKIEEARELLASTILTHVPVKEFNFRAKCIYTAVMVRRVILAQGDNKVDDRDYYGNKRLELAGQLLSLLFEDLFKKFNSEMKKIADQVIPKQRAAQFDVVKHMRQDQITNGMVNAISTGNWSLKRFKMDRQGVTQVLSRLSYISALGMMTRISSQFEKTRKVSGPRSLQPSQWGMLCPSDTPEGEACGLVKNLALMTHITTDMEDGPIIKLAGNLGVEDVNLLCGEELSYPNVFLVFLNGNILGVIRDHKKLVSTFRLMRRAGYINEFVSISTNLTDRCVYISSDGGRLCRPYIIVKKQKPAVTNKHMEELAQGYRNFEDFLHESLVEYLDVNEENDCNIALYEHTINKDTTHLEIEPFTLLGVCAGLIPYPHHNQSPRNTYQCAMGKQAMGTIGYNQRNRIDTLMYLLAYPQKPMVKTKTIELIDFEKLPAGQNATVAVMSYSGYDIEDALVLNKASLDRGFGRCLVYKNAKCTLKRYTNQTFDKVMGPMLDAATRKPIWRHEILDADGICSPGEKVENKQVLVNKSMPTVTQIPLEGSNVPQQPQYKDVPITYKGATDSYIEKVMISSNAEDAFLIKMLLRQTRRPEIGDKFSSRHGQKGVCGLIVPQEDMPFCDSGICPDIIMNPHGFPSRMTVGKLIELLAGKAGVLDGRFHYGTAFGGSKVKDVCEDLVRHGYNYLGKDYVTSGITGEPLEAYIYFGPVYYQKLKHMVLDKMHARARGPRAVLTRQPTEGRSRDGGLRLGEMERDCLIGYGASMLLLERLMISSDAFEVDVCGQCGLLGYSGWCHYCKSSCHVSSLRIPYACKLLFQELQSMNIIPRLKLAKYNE
Nature of the experiment: In vivo transfer ribonucleic acid polymerase activity. As for the experimental part:
CF1 male mice (~30 g) were implanted with 2×10^6 Ehrlich ascites tumor cells, intraperitoneally on Day 0. Compound I was suspended by homogenation in 0.05% polysorbate.80-water and administered intraperitoneally at 10 and 20 mg/kg for 9 days to determine its effectiveness for inhibition of tumor growth. Mice were sacrificed on Day 10, and the ascites fluid was collected from the peritoneal cavity. The volume and ascrit (packed cell volume) were determined for each animal and the percent inhibition of tumor growth was calculated. For the metabolic studies, mice were treated on Days 8 and 9 with 10 mg/kg of Compound I, intraperitoneally. The animal was sacrificed on Day 10 and the ascites fluid harvested. The in vitro metabolic studies were performed at […] final concentration of Compound I.
In vitro and in vivo nuclear deoxyribonucleic acid polymerase activity was determined on isolated Ehrlich ascites cell nuclei. The incubation was that described by Sawada et al [Can. Res., 34, 3341 (1974)] except that [methyl-^3 H] deoxythymidine triphosphate (82.4 Ci/mmol) was used. The acid insoluble nucleic acid was collected on GF/F filters and counted. Nuclear ribonucleic acid polymerase activities were determined on enzymes isolated from nuclei. […] The acid insoluble ribonucleic acid was collected on nitrocellulose filters and counted.

Consider “{Cu[(CH3)3 N.BH2 CO2 ]2.(CH3)3 N.BH2 COOH} [Compound I]”, for which the “transfer ribonucleic acid polymerase activity suppressed” value is 37%. Moreover, the “Transfer ribonucleic acid polymerase activity” value (10 mg/kg/day I.P. on Days 8 and 9) is 63 ± 7 % Control.
